Key:
[1] = molecular target: T1, LTC4S (Homo sapiens (Human), UniProt Q16873); experiment: Human LTC4S enzymatic assay (HTRF detection of LTC4-Me); assay type: biochemical
Description: A. Human LTC4S Enzymatic Assay:
LTC4 synthase catalyzes the conversion of Leukotriene A4 (LTA4) to Leukotriene C4 (LTC4) in the presence of reduced glutathione (GSH) as a co-substrate. For compound testing, compounds are delivered as 10 mM stock solutions in 90% DMSO in matrix tubes. From this, a 1:3 dilution dose response series is prepared with a starting concentration of 30 μM to 0.1 nM. For the enzymatic assay 97.5 nL of compound/DMSO solution is transferred to each well and 5 μL enzyme solution (assay buffer: 50 mM bis-tris propane pH 7.3, 250 mM NaCl, 10 mM MgCl2, 0.001% MGN3) is added to the wells. […] The enzyme compound mixture is incubated at room temperature for 15 minutes prior to the addition of 5 μL substrate solution. […] A final substrate concentration of 400 μM GSH and 5 μM LTA4-Me is chosen.
The LTA4-Me is obtained commercially in 2% triethylamine/hexane solvent. As this solvent is incompatible with the HTRF assay it has to be exchanged with DMSO according to following procedure: add 50 μL of 100% DMSO to 50 μL LTA4-Me (3 mM) in a 2 mL Eppendorf tube and mix gently by inverting the tube. The triethylamine/hexane is evaporated under a constant argon flux at room temperature. The DMSO-LTA4-Me (3 mM) is aliquoted and stored at −20° C. for not longer than 4 weeks, as it is not stable in DMSO due to its oxidizing properties.
Upon addition of the substrate, the plate is immediately placed on a shaker for 5 min at room temperature. Immediately after the 5 min incubation 5 μL of H2O2 solution is added to all wells to stop the reaction. The plate contents are mixed before the addition of detection reagents. […] For the detection of the product of the enzymatic reaction LTC4-Me, the Cisbio LTC4-HTRF kit is used as the assay is compatible with the detection of LTC4-Me. 5 μL of diluted LTC4-d2 conjugate (according to manufacturer's protocol) are added to all wells of the assay plate and the contents gently mixed and incubated for 5 minutes at room temperature. […] The percent inhibition for each point of an inhibition curve is calculated after data interpolation using the LTC4-Me standard curve, to convert the HTRF signal to the amount of LTC4-Me produced within the LTC4S catalyzed reaction on each plate. The data is analyzed using parametric curve fitting to determine IC50 values of LTC4S inhibitors.

[2] = molecular target: T1, LTC4S; experiment: Human whole blood HTRF assay (LTC4 release after calcium ionophore A23187); assay type: cell-based; conditions: calcium ionophore A23187 stimulation, LTC4 by HTRF
[3] = 0.75 nM enzyme, 400 μM GSH, 5 μM LTA4-Me, 15 min pre-incubation, read-out: human LTC4S IC50 (enzymatic assay)
[4] = human whole blood diluted 1:3, 4 h incubation, read-out: human whole blood HTRF IC50
[5] = human whole blood HTRF IC50, human whole blood diluted 1:3, 4 h incubation

## O=C1CCCC2(CCN(c3nc4ccc(C(F)(F)F)cc4o3)CC2)N1c1ccc(Cl)c(F)c1 [Example 2, 1-(4-chloro-3-fluorophenyl)-9-(6-(trifluoromethyl)benzo[d]oxazol-2-yl)-1,9-diazaspiro[5.5]undecan-2-one]
[1]; [3]
  IC50: 0.036 µM

## O=C1CCCC2(CCN(c3noc([C@H]4C[C@@H]4C(F)(F)F)n3)CC2)N1c1ccc(Cl)c(F)c1 [Example 6b, 1-(4-chloro-3-fluorophenyl)-9-(5-((1S,2S)-2-(trifluoromethyl)cyclopropyl)-1,2,4-oxadiazol-3-yl)-1,9-diazaspiro[5.5]undecan-2-one, or 1-(4-chloro-3-fluorophenyl)-9-(5-((1R,2R)-2-(trifluoromethyl)cyclopropyl)-1,2,4-oxadiazol-3-yl)-1,9-diazaspiro[5.5]undecan-2-one]
[1]; [3]
  IC50: 0.044 µM

## O=C1CCCC2(CCN(c3nc(N4CCCC4)nnc3O)CC2)N1c1ccc(Cl)c(F)c1 [Example 8, 1-(4-chloro-3-fluorophenyl)-9-(6-hydroxy-3-(pyrrolidin-1-yl)-1,2,4-triazin-5-yl)-1,9-diazaspiro[5.5]undecan-2-one]
[1]; [3]
  IC50: 0.007 µM

## O=C1CCCC2(CCN(c3nccc(N4CC5(CC5)C4)n3)CC2)N1c1ccc(Cl)c(F)c1 [Example 35b, 9-(4-(5-azaspiro[2.3]hexan-5-yl)pyrimidin-2-yl)-1-(4-chloro-3-fluorophenyl)-1,9-diazaspiro[5.5]undecan-2-one]
[1]
  IC50: 0.003 µM

## O=C1CCCC2(CCN(c3cc(-n4cc(C(F)(F)F)cn4)n[nH]c3=O)CC2)N1c1ccc(F)c(F)c1 [Example 12, 1-(3,4-difluorophenyl)-9-(3-oxo-6-(4-(trifluoromethyl)-1H-pyrazol-1-yl)-2,3-dihydropyridazin-4-yl)-1,9-diazaspiro [5.5] undecane-2-one]
[2]; [4]
  IC50: 0.002 µM

## Nc1nc(OCC(F)(F)F)cc(N2CCC3(CCCC(=O)N3c3ccc(F)c(F)c3)CC2)n1 [Example 91, 9-(2-amino-6-(2,2,2-trifluoroethoxy)pyrimidin-4-yl)-1-(3,4-difluorophenyl)-1,9-diazaspiro[5.5]undecan-2-one]
[2]; [4]
  IC50: 0.003 µM

## O=C1CCCC2(CCN(c3cc(N4CCCOCC4)ncn3)CC2)N1c1ccc(F)c(F)c1 [Example 45, 9-(6-(1,4-oxazepan-4-yl)pyrimidin-4-yl)-1-(3,4-difluorophenyl)-1,9-diazaspiro[5.5]undecan-2-one]
[2]; [4]
  IC50: 0.62 µM

## O=C1CC(F)CC2(CCN(c3cc(OCC(F)(F)F)ncn3)CC2)N1c1ccc(F)c(F)c1 (stereo not shown) [Example 119, 1-(3,4-difluorophenyl)-4-fluoro-9-(6-(2,2,2-trifluoroethoxy)pyrimidin-4-yl)-1,9-diazaspiro[5.5]undecan-2-one]
[2]; [5]
  IC50: 0.029 µM

## Cn1cc(C2=CCC(F)(F)CC2)nc(N2CCC3(CCCC(=O)N3c3ccc(F)c(F)c3)CC2)c1=O [Example 19, 9-(6-(4,4-difluorocyclohex-1-en-1-yl)-4-methyl-3-oxo-3,4-dihydropyrazin-2-yl)-1-(3,4-difluorophenyl)-1,9-diazaspiro[5.5]undecane-2-one]
[2]; [4]
  IC50: 0.003 µM

## O=C1CCCC2(CCN(c3ncnc(N4CCC(O)(C(F)(F)F)CC4)n3)CC2)N1c1ccc(F)c(F)c1 [Example 40, 1-(3,4-difluorophenyl)-9-(4-(4-hydroxy-4-(trifluoromethyl)piperidin-1-yl)-1,3,5-triazin-2-yl)-1,9-diazaspiro[5.5]undecan-2-one]
[2]; [4]
  IC50: 0.004 µM

## O=C1CCCC2(CCN(c3cc(-n4cc(F)cn4)nc(N4CCOCC4)n3)CC2)N1c1ccc(F)c(F)c1 [Example 73, 1-(3,4-difluorophenyl)-9-(6-(4-fluoro-1H-pyrazol-1-yl)-2-morpholinopyrimidin-4-yl)-1,9-diazaspiro[5.5]undecan-2-one]
[2]; [4]
  IC50: 0.068 µM

## Nc1nc(N2CCC3(CCCC(=O)N3c3ccc(F)c(F)c3)CC2)cc(C(F)(F)C(F)F)n1 [Example 78, 9-(2-amino-6-(1,1,2,2-tetrafluoroethyl)pyrimidin-4-yl)-1-(3,4-difluorophenyl)-1,9-diazaspiro[5.5]undecan-2-one]
[2]; [4]
  IC50: 0.024 µM

## Nc1nc(N[C@@H]2CCOC2)cc(N2CCC3(CCCC(=O)N3c3ccc(F)c(F)c3)CC2)n1 [Example 112, (R)-9-(2-amino-6-((tetrahydrofuran-3-yl)amino)pyrimidin-4-yl)-1-(3,4-difluorophenyl)-1,9-diazaspiro[5.5]undecan-2-one]
[2]; [4]
  IC50: 0.067 µM

## Nc1nc(O[C@H](C2COC2)C(F)(F)F)cc(N2CCC3(CCCC(=O)N3c3ccc(F)c(F)c3)CC2)n1 (single isomer, unassigned) [Example 89b, (R)-9-(2-amino-6-(2,2,2-trifluoro-1-(oxetan-3-yl)ethoxy)pyrimidin-4-yl)-1-(3,4-difluorophenyl)-1,9-diazaspiro[5.5]undecan-2-one or (S)-9-(2-amino-6-(2,2,2-trifluoro-1-(oxetan-3-yl)ethoxy)pyrimidin-4-yl)-1-(3,4-difluorophenyl)-1,9-diazaspiro[5.5]undecan-2-one]
[2]; [4]
  IC50: 0.005 µM

## O=C1CCCC2(CCN(c3cc(-n4cc(F)cn4)ncn3)CC2)N1c1ccc(F)c(F)c1 [Example 56, 9-(6-(4-fluoro-1H-pyrazol-1-yl)pyrimidin-4-yl)-1-(3,4-difluorophenyl)-1,9-diazaspiro[5.5]undecan-2-one]
[2]; [4]
  IC50: 0.017 µM

## O=C1CCCC2(CCN(c3cc(=O)n(Cc4ccccc4)nc3OC3CCOCC3)CC2)N1c1ccc(F)c(F)c1 [Example 15b, 9-(1-benzyl-6-oxo-3-((tetrahydro-2H-pyran-4-yl)oxy)-1,6-dihydropyridazin-4-yl)-1-(3,4-difluorophenyl)-1,9-diazaspiro[5.5]undecan-2-one]
[2]; [5]
  IC50: 0.18 µM

## O=C1CCCC2(CCN(c3cc(O[C@H]4CCOC4)nc(CO)n3)CC2)N1c1ccc(F)c(F)c1 [Example 109, (S)-1-(3,4-difluorophenyl)-9-(2-(hydroxymethyl)-6-((tetrahydrofuran-3-yl)oxy)pyrimidin-4-yl)-1,9-diazaspiro[5.5]undecan-2-one]
[2]; [4]
  IC50: 0.015 µM

## O=C1CCCC2(CCN(c3cc(OC4CCOCC4)n[nH]c3=O)CC2)N1c1ccc(F)c(F)c1 [Example 16, 1-(3,4-difluorophenyl)-9-(3-oxo-6-((tetrahydro-2H-pyran-4-yl)oxy)-2,3-dihydropyridazin-4-yl)-1,9-diazaspiro[5.5]undecan-2-one]
[2]; [5]
  IC50: 0.016 µM

## Nc1nc(OCC(F)(F)C(F)(F)F)cc(N2CCC3(CCCC(=O)N3c3ccc(F)c(F)c3)CC2)n1 [Example 97]
[2]; [4]
  IC50: 0.003 µM

## O=C1CCCC2(CCN(c3cc(-c4ccc(F)cc4)n[nH]c3=O)CC2)N1c1ccc(F)c(F)c1 [Example 11, 1-(3,4-difluorophenyl)-9-(6-(4-fluorophenyl)-3-oxo-2,3-dihydropyridazin-4-yl)-1,9-diazaspiro[5.5]undecane-2-one]
[2]; [4]
  IC50: 0.006 µM

## O=C1CCCC2(CCN(c3cc(-n4cc(C(F)(F)F)cn4)nc(CO)n3)CC2)N1c1ccc(F)c(F)c1 (racemic) [Example 67, rac-1-(3,4-difluorophenyl)-9-(2-(1-hydroxymethyl)-6-(4-(trifluoromethyl)-1H-pyrazol-1-yl)pyrimidin-4-yl)1,9-diazaspiro[5.5]undecane-2-one]
[2]; [4]
  IC50: 0.002 µM

## Cn1nc(OC2CCOCC2)cc(N2CCC3(CCCC(=O)N3c3ccc(F)c(F)c3)CC2)c1=O [Example 17, 1-(3,4-difluorophenyl)-9-(2-methyl-3-oxo-6-((tetrahydro-2H-pyran-4-yl)oxy)-2,3-dihydropyridazin-4-yl)-1,9-diazaspiro[5.5]undecan-2-one]
[2]; [5]
  IC50: 0.009 µM

## CC(Oc1cc(N2CCC3(CCCC(=O)N3c3ccc(F)c(F)c3)CC2)nc(N)n1)C(F)(F)F (racemic) [Example 95, rac-9-(2-amino-6-((1,1,1-trifluoropropan-2-yl)oxy)pyrimidn-4-yl)-1-(3,4-difluorophienyl)-1,9-diazaspiro[5.5]undecan-2-one]
[2]; [4]
  IC50: 0.002 µM

## Nc1nc(N2CCC3(CCCC(=O)N3c3ccc(F)c(F)c3)CC2)nc(-n2cc(F)cn2)n1 [Example 60, 9-(4-amino-6-(4-fluoro-1H-pyrazol-1-yl)-1,3,5-triazin-2-yl)-1-(3,4-difllorophenyl)-1,9-diazaspiro[5.5]undecan-2-one]
[2]; [4]
  IC50: 0.68 µM

## Nc1nc(N2CCC3(CCCC(=O)N3c3ccc(F)c(F)c3)CC2)cc(C(F)(F)C(F)(F)F)n1 [Example 77, 9-(2-amino-6-(perfluoroethyl)pyrimidin-4-yl)-1-(3,4-difluorophenyl)-1,9-diazaspiro[5.5]undecane-2-one]
[2]; [4]
  IC50: 0.031 µM

Reference: US11708366B2, “Heteroaryl substituted spiropiperidinyl derivatives and pharmaceutical uses thereof” (Novartis AG, priority 2020, dated 2023)
